Data: patent publication US20050112573A1, “Method of detecting toxic substance” (priority 2001, published 2005)

Tested on: yeast genes (level of expressed mRNA)
Assay: DNA chip analysis of expressed mRNA of yeast genes after 2 h culture with a toxic chemical substance
Type: cell-based, Saccharomyces cerevisiae S288C
Summary of the method: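 S. cerevisiae S288C grown at 25° C in YPD; toxicant added at log phase at growth-inhibitory, non-lethal levels for 2 h, untreated cells as control. Poly(A) mRNA reverse-transcribed with Cy3/Cy5-dUTP, hybridized to whole-genome chip at 65° C >12 h; value is fluorescence ratio versus untreated.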

`C=CC=O` [(14), acrolein] was tested, and the “The level of expressed mRNA in the presence of chemical substance/absence: YGR293C” value (gene YGR293C) was 1.0, the “The level of expressed mRNA in the presence of chemical substance/absence: YHL006C” value (gene YHL006C) was 1.1 and the “The level of expressed mRNA in the presence of chemical substance/absence: YHL021C” value (gene YHL021C) was 1.1. The “The level of expressed mRNA in the presence of chemical substance/absence: YHL037C” value (gene YHL037C) was 0.9, the “level of expressed mRNA in the presence of chemical substance/in its absence” value (“level … of chemical substance/in its absence” for short) (gene YHR037W) was 1.1 and the “The level of expressed mRNA in the presence of chemical substance/absence: YHR083W” value (gene YHR083W) was 1.6. For the same compound, the “level … of chemical substance/in its absence” value (gene YHR092C) was 1.6, the “The level of expressed mRNA in the presence of chemical substance/absence: YHR095W” value (gene YHR095W) was 0.9 and the “The level of expressed mRNA in the presence of chemical substance/absence: YHR105W” value (gene YHR105W) was 1.2. For the same compound, the “The level of expressed mRNA in the presence of chemical substance/absence: YHR134W” value (gene YHR134W) was 1.6, the “level … of chemical substance/in its absence” value (gene YHR137W) was 0.8 and the “The level of expressed mRNA in the presence of chemical substance/absence: YHR180W” value (gene YHR180W) was 1.5. For the same compound, the “The level of expressed mRNA in the presence of chemical substance/absence: YHR181W” value (gene YHR181W) was 1.6, the “level … of chemical substance/in its absence” value (gene YHR190W) was 1.3 and the “level … of chemical substance/in its absence” value (gene YIL033C) was 0.7. For the same compound, the “The level of expressed mRNA in the presence of chemical substance/absence: YIL108W” value (gene YIL108W) was 1.0, the “The level of expressed mRNA in the presence of chemical substance/absence: YIL127C” value (gene YIL127C) was 1.3 and the “level … of chemical substance/in its absence” value (gene YIL154C) was 0.9. For the same compound, the “The level of expressed mRNA in the presence of chemical substance/absence: YIL165C” value (gene YIL165C) was 1.3, the “level … of chemical substance/in its absence” value (gene YIL167W) was 1.4 and the “level … of chemical substance/in its absence” value (gene YIR035C) was 1.1. For the same compound, the “The level of expressed mRNA in the presence of chemical substance/absence: YJL017W” value (gene YJL017W) was 1.0, the “The level of expressed mRNA in the presence of chemical substance/absence: YJL032W” value (gene YJL032W) was 1.6 and the “The level of expressed mRNA in the presence of chemical substance/absence: YJL037W” value (gene YJL037W) was 2.0. For the same compound, the “The level of expressed mRNA in the presence of chemical substance/absence: YJL049W” value (gene YJL049W) was 1.8, the “level … of chemical substance/in its absence” value (gene YJL088W) was 2.0 and the “The level of expressed mRNA in the presence of chemical substance/absence: YJL097W” value (gene YJL097W) was 1.0. For the same compound, the “level … of chemical substance/in its absence” value (gene YJL132W) was 1.4, the “level … of chemical substance/in its absence” value (gene YJL196C) was 0.8 and the “The level of expressed mRNA in the presence of chemical substance/absence: YJR030C” value (gene YJR030C) was 1.0. The “The level of expressed mRNA in the presence of chemical substance/absence: YJR044C” value (gene YJR044C) was 1.3, the “level … of chemical substance/in its absence” value (gene YJR142W) was 1.3 and the “level … of chemical substance/in its absence” value (gene YJR148W) was 1.3. The “level … of chemical substance/in its absence” value (gene YJR159W) was 2.0, the “The level of expressed mRNA in the presence of chemical substance/absence: YKL051W” value (gene YKL051W) was 0.7 and the “The level of expressed mRNA in the presence of chemical substance/absence: YKL059C” value (gene YKL059C) was 1.1. The “level … of chemical substance/in its absence” value (gene YKL067W) was 1.2, the “The level of expressed mRNA in the presence of chemical substance/absence: YKL090W” value (gene YKL090W) was 1.4 and the “The level of expressed mRNA in the presence of chemical substance/absence: YKL094W” value (gene YKL094W) was 1.3. The “The level of expressed mRNA in the presence of chemical substance/absence: YKL097C” value (gene YKL097C) was 1.0, the “The level of expressed mRNA in the presence of chemical substance/absence: YKL100C” value (gene YKL100C) was 1.0 and the “level … of chemical substance/in its absence” value (gene YKR039W) was 1.2. The “The level of expressed mRNA in the presence of chemical substance/absence: YKR040C” value (gene YKR040C) was 3.8, the “The level of expressed mRNA in the presence of chemical substance/absence: YLR097C” value (gene YLR097C) was 1.7 and the “level … of chemical substance/in its absence” value (gene YLR142W) was 2.1. The “level … of chemical substance/in its absence” value (gene YLR180W) was 0.6, the “The level of expressed mRNA in the presence of chemical substance/absence: YLR226W” value (gene YLR226W) was 1.1 and the “level … of chemical substance/in its absence” value (gene YLR273C) was 1.3. The “level … of chemical substance/in its absence” value (gene YLR300W) was 0.6, the “level … of chemical substance/in its absence” value (gene YLR307W) was 1.9 and the “The level of expressed mRNA in the presence of chemical substance/absence: YLR338W” value (gene YLR338W) was 0.8. For the same compound, the “The level of expressed mRNA in the presence of chemical substance/absence: YLR339C” value (gene YLR339C) was 0.5, the “The level of expressed mRNA in the presence of chemical substance/absence: YLR392C” value (gene YLR392C) was 1.1 and the “The level of expressed mRNA in the presence of chemical substance/absence: YLR415C” value (gene YLR415C) was 0.8. The “The level of expressed mRNA in the presence of chemical substance/absence: YLR427W” value (gene YLR427W) was 0.8, the “The level of expressed mRNA in the presence of chemical substance/absence: YML013W” value (gene YML013W) was 1.1 and the “The level of expressed mRNA in the presence of chemical substance/absence: YML029W” value (gene YML029W) was 1.6. The “The level of expressed mRNA in the presence of chemical substance/absence: YML041C” value (gene YML041C) was 2.2, the “The level of expressed mRNA in the presence of chemical substance/absence: YML079W” value (gene YML079W) was 1.4 and the “level … of chemical substance/in its absence” value (gene YML110C) was 1.4. The “The level of expressed mRNA in the presence of chemical substance/absence: YML118W” value (gene YML118W) was 1.0, the “The level of expressed mRNA in the presence of chemical substance/absence: YMR068W” value (gene YMR068W) was 1.1 and the “The level of expressed mRNA in the presence of chemical substance/absence: YMR071C” value (gene YMR071C) was 1.2. For the same compound, the “level … of chemical substance/in its absence” value (gene YMR105C) was 1.0, the “The level of expressed mRNA in the presence of chemical substance/absence: YMR114C” value (gene YMR114C) was 1.5 and the “The level of expressed mRNA in the presence of chemical substance/absence: YMR115W” value (gene YMR115W) was 1.3. The “The level of expressed mRNA in the presence of chemical substance/absence: YMR160W” value (gene YMR160W) was 1.1, the “level … of chemical substance/in its absence” value (gene YMR189W) was 1.6 and the “The level of expressed mRNA in the presence of chemical substance/absence: YMR258C” value (gene YMR258C) was 1.0. The “level … of chemical substance/in its absence” value (gene YMR271C) was 1.8, the “level … of chemical substance/in its absence” value (gene YMR272C) was 0.8 and the “level … of chemical substance/in its absence” value (gene YMR296C) was 0.7. The “level … of chemical substance/in its absence” value (gene YNL012W) was 1.0, the “The level of expressed mRNA in the presence of chemical substance/absence: YNL026W” value (gene YNL026W) was 0.8 and the “level … of chemical substance/in its absence” value (gene YNL037C) was 1.3. The “level … of chemical substance/in its absence” value (gene YNL045W) was 0.8, the “The level of expressed mRNA in the presence of chemical substance/absence: YNL058C” value (gene YNL058C) was 0.8 and the “The level of expressed mRNA in the presence of chemical substance/absence: YNL063W” value (gene YNL063W) was 1.1. For the same compound, the “level … of chemical substance/in its absence” value (gene YNL104C) was 0.9, the “level … of chemical substance/in its absence” value (gene YNL106C) was 1.1 and the “level … of chemical substance/in its absence” value (gene YNL130C) was 1.0. The “level … of chemical substance/in its absence” value (gene YNL169C) was 0.9, the “The level of expressed mRNA in the presence of chemical substance/absence: YNL176C” value (gene YNL176C) was 0.9 and the “The level of expressed mRNA in the presence of chemical substance/absence: YNL181W” value (gene YNL181W) was 1.9. For the same compound, the “The level of expressed mRNA in the presence of chemical substance/absence: YNL191W” value (gene YNL191W) was 1.0, the “The level of expressed mRNA in the presence of chemical substance/absence: YNL194C” value (gene YNL194C) was 3.0 and the “The level of expressed mRNA in the presence of chemical substance/absence: YNL200C” value (gene YNL200C) was 0.6. For the same compound, the “The level of expressed mRNA in the presence of chemical substance/absence: YNL212W” value (gene YNL212W) was 1.0, the “level … of chemical substance/in its absence” value (gene YNL231C) was 0.9 and the “The level of expressed mRNA in the presence of chemical substance/absence: YNL253W” value (gene YNL253W) was 1.4. The “The level of expressed mRNA in the presence of chemical substance/absence: YNL265C” value (gene YNL265C) was 1.9, the “The level of expressed mRNA in the presence of chemical substance/absence: YNL276C” value (gene YNL276C) was 1.5 and the “level … of chemical substance/in its absence” value (gene YNL322C) was 1.2. For the same compound, the “level … of chemical substance/in its absence” value (gene YNR002C) was 1.2, the “level … of chemical substance/in its absence” value (gene YNR019W) was 1.0 and the “level … of chemical substance/in its absence” value (gene YNR033W) was 0.9. The “The level of expressed mRNA in the presence of chemical substance/absence: YNR051C” value (gene YNR051C) was 1.0, the “level … of chemical substance/in its absence” value (gene YNR059W) was 1.0 and the “The level of expressed mRNA in the presence of chemical substance/absence: YOL026C” value (gene YOL026C) was 1.3. The “The level of expressed mRNA in the presence of chemical substance/absence: YOL030W” value (gene YOL030W) was 0.6, the “level … of chemical substance/in its absence” value (gene YOL058W) was 1.5 and the “level … of chemical substance/in its absence” value (gene YOL126C) was 1.2. For the same compound, the “level … of chemical substance/in its absence” value (gene YOL143C) was 0.7, the “level … of chemical substance/in its absence” value (gene YOL153C) was 1.5 and the “level … of chemical substance/in its absence” value (gene YOL157C) was 1.2. The “The level of expressed mRNA in the presence of chemical substance/absence: YOR022C” value (gene YOR022C) was 1.0, the “The level of expressed mRNA in the presence of chemical substance/absence: YOR087W” value (gene YOR087W) was 0.9 and the “The level of expressed mRNA in the presence of chemical substance/absence: YOR088W” value (gene YOR088W) was 0.4. The “level … of chemical substance/in its absence” value (gene YOR099W) was 0.7, the “level … of chemical substance/in its absence” value (gene YOR130C) was 1.3 and the “level … of chemical substance/in its absence” value (gene YOR136W) was 0.9. The “The level of expressed mRNA in the presence of chemical substance/absence: YOR138C” value (gene YOR138C) was 0.9, the “The level of expressed mRNA in the presence of chemical substance/absence: YOR155C” value (gene YOR155C) was 1.5 and the “The level of expressed mRNA in the presence of chemical substance/absence: YOR253W” value (gene YOR253W) was 1.3.
